Measured values reported in US20060223996A1, “IL-12 modulatory compounds” (Synta Pharmaceuticals Corp., priority 2004, published 2006).

System: IL-12
Assay: Human in vitro assay: inhibition of IL-12 production in IFNγ/LPS- or IFNγ/SAC-stimulated human PBMC or THP-1 cells (ELISA)
Type: cell-based
Settings: read-out: IC50 Range (representative in vitro IC50 data)
Summary of the method: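 Sandwich ELISA for IL-12 (p70, p40) on supernatants collected 18 h after stimulation gave IC50 values; MTS monitored viability. THP-1 cells: IFNγ 100 U/mL priming 22 h, SAC 0.025%. PBMC: IFNγ 30 U/mL for 22 h plus LPS 1 μg/mL, or IFNγ 100 U/mL plus SAC 0.01%. Final DMSO 0.25%.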

Structure (SMILES)	IC50 [nM]
O=C(Nc1cccc(-n2cccn2)c1)c1cc(OCC(=O)N2CCCCC2)nc(N2CCOCC2)n1 [Compound 115, 2-Morpholin-4-yl-6-(2-oxo-2-piperidin-1-yl-ethoxy)-pyrimidine-4-carboxylic acid (3-pyrazol-1-yl-phenyl)-amide]	< 1000
COCCN(C)c1cc(C(=O)Nc2ccc(N3CCOCC3)c(C(N)=O)c2)nc(N2CCOCC2)n1 [Compound 234, 6-[(2-Methoxy-ethyl)-methyl-amino]-2-morpholin-4-yl-pyrimidine-4-carboxylic acid (3-carbamoyl-4-morpholin-4-yl-phenyl)-amide]	≥ 1000
Cn1ncc2ccc(NC(=O)c3cc(OCCN4CCOCC4)nc(N4CCOCC4)n3)cc21 [Compound 216, N-(1-methyl-1H-indazol-6-yl)-2-morpholino-6-(2-morpholinoethoxy)pyrimidine-4-carboxamide]	≥ 1000
CCc1c[nH]c2ccc(NC(=O)c3cc(N4CCCCC4)nc(N4CCOCC4)n3)cc12 [Compound 179, 2-Morpholin-4-yl-6-piperidin-1-yl-pyrimidine-4-carboxylic acid (3-ethyl-1H-indol-5-yl)-amide]	< 1000
Cc1cccc(NC(=O)c2cc(OCCN3CCOCC3)nc(N3CCOCC3)n2)c1 [Compound 56, 2-Morpholin-4-yl-6-(2-morpholin-4-yl-ethoxy)-pyrimidine-4-carboxylic acid m-tolylamide]	≥ 1000
CCN(CC)Cc1cc(NC(=O)c2cc(N(C)CCOC)nc(N3CCOCC3)n2)ccc1O [Compound 164, 6-[(2-Methoxy-ethyl)-methyl-amino]-2-morpholin-4-yl-pyrimidine-4-carboxylic acid (3-diethylaminomethyl-4-hydroxy-phenyl)-amide]	≥ 1000
O=C(c1cc(OCCN2CCOCC2)nc(N2CCOCC2)n1)n1ccc2ccccc21 [Compound 54, Indol-1-yl-[2-morpholin-4-yl-6-(2-morpholin-4-yl-ethoxy)-pyrimidin-4-yl]-methanone]	≥ 1000
COCCN(CCOC)c1cc(C(=O)Nc2ccc3[nH]c(C)c(C)c3c2)nc(N2CCOCC2)n1 [Compound 258, 6-(bis(2-methoxyethyl)amino)-N-(2,3-dimethyl-1H-indol-5-yl)-2-morpholinopyrimidine-4-carboxamide]	< 1000
CN(C)c1cccc(NC(=O)c2cc(OCCN3CCOCC3)cc(N3CCOCC3)n2)c1 [Compound 155, 6-Morpholin-4-yl-4-(2-morpholin-4-yl-ethoxy)-pyridine-2-carboxylic acid (3-dimethylamino-phenyl)-amide]	< 1000
CCCCN(C)C(=O)CNc1cc(C(=O)Nc2ccc3[nH]c(C)c(C)c3c2)nc(N2CCOCC2)n1 [Compound 107, 6-{[(Butyl-methyl-carbamoyl)-methyl]-amino}-2-morpholin-4-yl-pyrimidine-4-carboxylic acid (2,3-dimethyl-1H-indol-5-yl)-amide]	< 1000
Cc1cccc(NC(=O)CNc2cc(C(=O)Nc3ccc4[nH]c(C)c(C)c4c3)nc(N3CCOCC3)n2)c1 [Compound 111, 2-Morpholin-4-yl-6-[(m-tolylcarbamoyl-methyl)-amino]-pyrimidine-4-carboxylic acid (2,3-dimethyl-1H-indol-5-yl)-amide]	< 1000
Cc1cccc(OC(=O)Nc2cc(OCCc3ccccn3)nc(N3CCOCC3)n2)c1 [Compound 83, [2-Morpholin-4-yl-6-(2-pyridin-2-yl-ethoxy)-pyrimidin-4-yl]-carbamic acid m-tolyl ester]	≥ 1000
O=C(Nc1ccc2ccccc2c1)Nc1cc(N2CCOCC2)nc(OCCN2CCOCC2)n1 [Compound 124, 1-[6-Morpholin-4-yl-2-(2-morpholin-4-yl-ethoxy)-pyrimidin-4-yl]-3-naphthalen-2-yl-urea]	≥ 1000
O=C(Nc1cc(OCCN2CCOCC2)nc(N2CCOCC2)n1)Nc1nnc(C2CC2)s1 [Compound 141, 1-(5-Cyclopropyl-[1,3,4]thiadiazol-2-yl)-3-[2-morpholin-4-yl-6-(2-morpholin-4-yl-ethoxy)-pyrimidin-4-yl]-urea]	≥ 1000
O=C(Nc1ccc2[nH]c3c(c2c1)CCCC3)c1cc(N2CCC(O)CC2)cc(N2CCOCC2)n1 [Compound 185, 4-Hydroxy-6′-morpholin-4-yl-3,4,5,6-tetrahydro-2H-[1,4′]bipyridinyl-2′-carboxylic acid (6,7,8,9-tetrahydro-5H-carbazol-3-yl)-amide; compound with methanesulfonic acid]	< 1000
Cc1ccc2nc(NC(=O)c3cc(N4CCOCC4)nc(OCCc4ccccn4)n3)sc2c1 [Compound 64, 6-Morpholin-4-yl-2-(2-pyridin-2-yl-ethoxy)-pyrimidine-4-carboxylic acid (6-methyl-benzothiazol-2-yl)-amide]	≥ 1000
COCCN(C)c1cc(C(=O)Nc2ccc3c(c2)OCO3)nc(N2CCOCC2)n1 [Compound 210, N-(benzo[d][1,3]dioxol-5-yl)-6-((2-methoxyethyl)(methyl)amino)-2-morpholinopyrimidine-4-carboxamide]	≥ 1000
Cc1c(C)n(C)c2ccc(NC(=O)c3cc(OCCN4CCOCC4)cc(N4CCOCC4)n3)cc12 [Compound 146, 6-Morpholin-4-yl-4-(2-morpholin-4-yl-ethoxy)-pyridine-2-carboxylic acid (1,2,3-trimethyl-1H-indol-5-yl)-amide]	< 1000
O=C(Nc1ccc2[nH]c3c(c2c1)CCCC3)c1cc(OCCN2CCOC2=O)nc(N2CCOCC2)n1 [Compound 223, 2-Morpholin-4-yl-6-[2-(2-oxo-oxazolidin-3-yl)-ethoxy]-pyrimidine-4-carboxylic acid (6,7,8,9-tetrahydro-5H-carbazol-3-yl)-amide]	< 1000
O=C(Nc1nnc(N2CCOCC2)[nH]1)c1cc(OCCN2CCOCC2)nc(N2CCOCC2)n1 [Compound 293, 2-Morpholin-4-yl-6-(2-morpholin-4-yl-ethoxy)-pyrimidine-4-carboxylic acid (5-morpholin-4-yl-4H-[1,2,4]triazol-3-yl)-amide]	≥ 1000
COCCN(C)c1cc(C(=O)Nc2cccc(OC(F)(F)F)c2)nc(N2CCOCC2)n1 [Compound 244, 6-[(2-Methoxy-ethyl)-methyl-amino]-2-morpholin-4-yl-pyrimidine-4-carboxylic acid (3-trifluoromethoxy-phenyl)-amide]	≥ 1000
Cc1[nH]c2ccc(NC(=O)c3cc(N4CCOCC4)cc(N4CCOCC4)n3)cc2c1C [Compound 30, 4,6-Di-morpholin-4-yl-pyridine-2-carboxylic acid (2,3-dimethyl-1H-indol-5-yl)-amide]	< 1000
O=C(Nc1cc(OCCN2CCOCC2)nc(N2CCOCC2)n1)Nc1ccccc1Cl [Compound 132, 1-(2-Chloro-phenyl)-3-[2-morpholin-4-yl-6-(2-morpholin-4-yl-ethoxy)-pyrimidin-4-yl]-urea]	< 1000
O=C(Nc1ccc2cc[nH]c2c1)c1cc(OCCN2CCOCC2)nc(N2CCOCC2)n1 [Compound 275, 2-Morpholin-4-yl-6-(2-morpholin-4-yl-ethoxy)-pyrimidine-4-carboxylic acid (1H-indol-6-yl)-amide]	< 1000
CC(=O)N1CCN(c2cc(C(=O)Nc3ccc4[nH]c5c(c4c3)CCCC5)nc(N3CCOCC3)n2)CC1 [Compound 262, 6-(4-acetylpiperazin-1-yl)-2-morpholino-N-(2,3,4,9-tetrahydro-1H-carbazol-6-yl)pyrimidine-4-carboxamide]	< 1000
